“And” between values parts separate entries of the source, which are not always exact repeats. Equal values may be shown once.
How the values were obtained:
Type in all cases: cell-based, human
[1] = test system: non-senescent control IMR90 ER:RAS cells; test: Nuclei count (Hoechst, high content imaging) senolytic assay, OIS model, non-senescent control cells; settings: for Mean % Cell Survival: mean n=3 (Fig 3C)
Description: To test for senolytic activity, we compared the effect of each compound on the total cell number (automated high content image-based analysis of total number of nuclei per well) in non-senescent and senescent IMR90 ER:RAS cultures treated with the top hits from the computational screen (Figs. 2e and 3a–d and Supplementary Fig. 4a–c). The drop in cell number compared to untreated controls is indicated by the nuclei count and reflects cell death[13],[15]. As positive control, we employed ouabain, a cardiac glycoside with well characterised senolytic activity.
(§1) We performed experimental validation of the compounds with z-score > 8 (Fig. 2e). […] We employed two cellular models of senescence: one of OIS and a second one of TIS. For the OIS case, we utilised IMR90 ER:RAS cells with 4-OHT at 100 nM. […] For the TIS model, we used A549 cells with etoposide at 100 μM. The exposure of the cells to etoposide lasted 48 h, after which period the cells were cultivated for a further three days with normal media.
(§2) IMR90 (CCL-186) human foetal lung fibroblasts and A549 (CCL-185) human lung adenocarcinoma cells were obtained from the American Type Culture Collection (ATCC, Manassas, VA). The cell lines were confirmed to be mycoplasma negative (Lonza MycoAlert, cat #LT07-118). IMR90 ER:RAS is a derivative of IMR90 cells expressing a switchable version of oncogenic H-Ras[84]. IMR90 ER:RAS and A549 cells were maintained in Dulbecco’s Modified Eagle Medium (DMEM, ThermoFisher) supplemented with foetal bovine serum (10%), L-glutamine (2 mM, ThermoFisher), and antibiotic-antimycotic solution (1%, ThermoFisher) and incubated under standard tissue culture conditions (37 °C and 5% CO2). For induction of the senescent phenotype, IMR90-ER:RAS cells were cultured in hydroxytamoxifen (4-OHT) (Sigma) added media at 100 nM final concentration. IMR90 were kept in culture for over 27 passages for replicative senescence. Cells were tested for mycoplasma on a regular basis.
(§3) Cells were seeded (50 μL per well) into 384-well plates (IMR90 ER:RAS cells in Nunc Optical Bottom Polybase Microplates [#142761, Thermo Scientific, Rochester, NY] and A549 cells in CELLSTAR Cell Culture Microplates [#781091, Greiner Bio-One, Kremsmünster, Austria]). Cells were incubated under standard tissue culture conditions for 24 h before the addition of compounds. Passage 14 IMR90 ER:RAS cells were seeded at 1300 cells per well in the control condition, and at 1600 cells per well in the senescent case. Passage 34 A549 cells were seeded at 7000 cells per well in the control condition, and at 10,000 cells per well in the senescent case.
(§4) Dose response plates were prepared with a DMSO control and a 10-point […] concentration range, and added to the compounds using a D300e digital dispenser (Tecan Trading AG, Switzerland) at a final concentration of between 10 μM and 10 nM. Every screened condition was carried out in triplicate. After 72 h of incubation with exposure to the compounds, cells were fixed by the addition of an equal volume of formaldehyde (8%, 50 μL; #BP531-500, Fisher Bioreagents, Fisher Scientific, Loughborough, Leicestershire) to the existing media, incubated at room temperature (30 min), and washed three times in phosphate-buffered saline (PBS). Cells were then permeabilised in Triton-X100 (0.1%, 50 μL) and incubated at room temperature (30 min) followed by three more washes with PBS.
(§5) Cells were stained with Hoechst 33342 for nuclei count (excitation/emission wavelength at 387/447 […], DAPI channel, original concentration at 10 mg/ml, final concentration at 2 μg/ml; H1399, Molecular Probes, Eugene, OR). The staining solution was prepared in bovine serum albumin solution (10%). The staining solution was added to each well (30 μL) and incubated in the dark at room temperature (30 min), followed by three washes with PBS and no final aspiration. Plates were foil sealed.

[2] = test system: senescent A549 cells (etoposide-induced); test: Nuclei count senolytic assay, therapy-induced senescence (TIS) model, senescent cells; settings: Senescent cells, mean
Procedure: (§6) We performed a second validation of the effectiveness of our machine learning models using a different stressor. We focused on therapy-induced senescence (TIS, Supplementary Fig. 6a), where human epithelial cancerous cells (A549) were induced to become senescent by addition of etoposide. Cells were treated with 100 μM etoposide for 48 h, followed by another three days of exposure to media in standard conditions.
as §1, §2, §3, §4, §5
(§7) Plates were imaged on an ImageXpress micro XLS (Molecular Devices, Eugene, OR) equipped with a robotic plate loader (Scara4, PAA, UK).

[3] = test system: non-senescent control A549 cells; test: Nuclei count senolytic assay, TIS model, non-senescent control cells; settings: Control cells, mean
Procedure: as §6, §1, §2, §3, §4, §5, §7

Cc1c(NC(=O)OC[C@@H]2COCCN2)cn2ncnc(Nc3ccc4c(cnn4Cc4cccc(F)c4)c3)c12.Cl.Cl [BMS 599626 2HCL, BMS 599626 dihydrochloride]
% Cell Survival ([1]; Control cells, log (dose) [M] -5, individual replicates, SUP FIG 4C): 105.353% and 91.3279% and 103.579%
% Cell Survival ([1]; Control cells, log (dose) [M] -5.33, individual replicates, SUP FIG 4C): 86.7238% and 73.5321% and 81.9018%
% Cell Survival ([1]; Control cells, log (dose) [M] -5.66, individual replicates, SUP FIG 4C): 118.415% and 87.5339% and 100.613%
% Cell Survival ([1]; Control cells, log (dose) [M] -6, individual replicates, SUP FIG 4C): 100.107% and 87.4435% and 90.184%
% Cell Survival ([1]; Control cells, log (dose) [M] -6.33, individual replicates, SUP FIG 4C): 111.884% and 90.2439% and 100.716%
% Cell Survival ([1]; Control cells, log (dose) [M] -6.66, individual replicates, SUP FIG 4C): 106.852% and 86.4499% and 109.816%
% Cell Survival ([1]; Control cells, log (dose) [M] -7, individual replicates, SUP FIG 4C): 101.927% and 74.8871% and 92.5358%
% Cell Survival ([1]; Control cells, log (dose) [M] -7.33, individual replicates, SUP FIG 4C): 103.426% and 89.7922% and 99.3865%
% Cell Survival ([1]; Control cells, log (dose) [M] -7.66, individual replicates, SUP FIG 4C): 119.807% and 91.5989% and 105.93%
% Cell Survival ([1]; Control cells, log (dose) [M] -8, individual replicates, SUP FIG 4C): 100.749% and 77.0551% and 102.454%
Mean % Cell Survival ([1]; Control, log (dose) [M] -5, 72 h): 100.087%
Mean % Cell Survival ([1]; Control, log (dose) [M] -5.33, 72 h): 80.7192%
Mean % Cell Survival ([1]; Control, log (dose) [M] -5.66, 72 h): 102.188%
Mean % Cell Survival ([1]; Control, log (dose) [M] -6, 72 h): 92.5782%
Mean % Cell Survival ([1]; Control, log (dose) [M] -6.33, 72 h): 100.948%
Mean % Cell Survival ([1]; Control, log (dose) [M] -6.66, 72 h): 101.039%
Mean % Cell Survival ([1]; Control, log (dose) [M] -7, 72 h): 89.7834%
Mean % Cell Survival ([1]; Control, log (dose) [M] -7.33, 72 h): 97.535%
Mean % Cell Survival ([1]; Control, log (dose) [M] -7.66, 72 h): 105.779%
Mean % Cell Survival ([1]; Control, log (dose) [M] -8, 72 h): 93.4195%
% Cell Survival ([1]; Control, log (dose) [M] -5): 100.351% and 111.029% and 102.815%
% Cell Survival ([1]; Control, log (dose) [M] -5.33): 101.964% and 126.351% and 107.239%
% Cell Survival ([1]; Control, log (dose) [M] -5.66): 131.276% and 125.833% and 112.534%
% Cell Survival ([1]; Control, log (dose) [M] -6): 101.823% and 113.768% and 114.812%
% Cell Survival ([1]; Control, log (dose) [M] -6.33): 107.574% and 113.397% and 102.681%
% Cell Survival ([1]; Control, log (dose) [M] -6.66): 98.317% and 111.029% and 104.088%
% Cell Survival ([1]; Control, log (dose) [M] -7): 103.156% and 106.366% and 100.335%
% Cell Survival ([1]; Control, log (dose) [M] -7.33): 103.086% and 108.882% and 96.7828%
% Cell Survival ([1]; Control, log (dose) [M] -7.66): 97.5456% and 102.221% and 100.201%
% Cell Survival ([1]; Control, log (dose) [M] -8): 96.0028% and 99.7779% and 101.072%
Mean % Cell Survival ([2]; log (dose) [M] -5): 90.7857%
Mean % Cell Survival ([2]; log (dose) [M] -5.33): 83.9286%
Mean % Cell Survival ([2]; log (dose) [M] -5.66): 68.2857%
Mean % Cell Survival ([2]; log (dose) [M] -6): 92.9286%
Mean % Cell Survival ([2]; log (dose) [M] -6.33): 86.7857%
Mean % Cell Survival ([2]; log (dose) [M] -6.66): 103.929%
Mean % Cell Survival ([2]; log (dose) [M] -7): 113.571%
Mean % Cell Survival ([2]; log (dose) [M] -7.33): 119.214%
Mean % Cell Survival ([2]; log (dose) [M] -7.66): 109.286%
Mean % Cell Survival ([2]; log (dose) [M] -8): 117.714%
Mean % Cell Survival ([3]; log (dose) [M] -5): 104.732%
Mean % Cell Survival ([3]; log (dose) [M] -5.33): 111.851%
Mean % Cell Survival ([3]; log (dose) [M] -5.66): 123.214%
Mean % Cell Survival ([3]; log (dose) [M] -6): 110.134%
Mean % Cell Survival ([3]; log (dose) [M] -6.33): 107.884%
Mean % Cell Survival ([3]; log (dose) [M] -6.66): 104.478%
Mean % Cell Survival ([3]; log (dose) [M] -7): 103.285%
Mean % Cell Survival ([3]; log (dose) [M] -7.33): 102.917%
Mean % Cell Survival ([3]; log (dose) [M] -7.66): 99.9891%
Mean % Cell Survival ([3]; log (dose) [M] -8): 98.951%

Source: publication PMC10257182, “Discovery of senolytics using machine learning” (Nature Communications, 2023)
